Experimental data published in US5773459A, “Urea- and thiourea-type compounds” (Sugen, Inc., priority 1995, dated 1998).
Where two headings read alike, the source gives them in different places.

System: 3T3/IGF-1R cells
Test: IGF-1 Receptor Growth Assay (3T3/IGF-1R cells, SRB)
Assay type: cell-based
Procedure: Sulforhodamine B (SRB) Assay for Adherent Cells
Sulforhodamine B assays for measuring effects of TBST compounds on cell growth were based on procedures described by Skehan et al. J. Natl. Cancer Inst. 82:1107, 1990 incorporated herein by reference in its entirety, including any drawings. Unless otherwise stated the assays were carried out aseptically as follows:
IGF-1 Receptor Growth Assay
Cell lines: 3T3/IGF-1 R (10% FBS/2 mM glutamine/DMEM) NIH 3T3 c7 (10% calf serum/2 mM glutamine/DMEM) NOTE: NIH 3T3 cells (and cells derived from them) should never be allowed to become confluent because this increases the chance of spontaneous transformation. If they show signs of being transformed (morphological changes, piling up, moving into clumps), throw them away and thaw a fresh batch.
Materials: 10% FBS/2 mM glutamine/DMEM 0.5% FBS/2 mM glutamine/DMEM 10% calf serum/2 mM glutamine/DMEM IGF-1, 5 μM in sterile PBS (Promega/Fisher cat. #G5111) DMSO, tissue culture grade (Sigma cat. #D 2650) Hits from screen 11, 100 mM in DMSO 96-well plates, flat and round bottom 8 channel pipettor and sterile tips sterile reagent reservoirs sterile tubes (1.5 or 15 ml)
Methods (carry all steps out under asceptic conditions until fixing the cells for the SRB assay):
Day 0: Cell Plating--Trypsinize and count 3T3/IGF-1R and NIH 3T3 c7 cells. Dilute in growth media to 2000 cells/200 μl and seed flat bottom 96-well plates with 200 μl/well, one plate for two compounds for each cell line.
Day 1: Compound preparation--Add DMSO to each compound to make 100 mM stock solutions.
Aliquot each compound to 3-4 sterile screw cap tubes and store at -20° C. After thawing, make sure the compound has gone completely back into solution. Throw away after 3 freeze/thaws.
3T3/IGF-1R cells--For each 96-well plate, make 15 ml of 10 nM IGF-1/0.5% FBS/2 mM glutamine/DMEM (30 μl of 5 μM IGF-1/15 ml).
Aliquot 1.5 ml 10 nM IGF-1/0.5% FBS to a sterile tube for each compound to be tested (the first time a compound is tested, use a 15 ml tube in case it is necessary to add extra medium to get it into solution).
Add 3 μl of 100 mM stock of each compound to a tube so 200 μM final. Shake or vortex until it goes into solution. If it is necessary to add additional medium, note the final concentration.
For the DMSO control, prepare 0.5 ml/plate of 0.2% DMSO/10 nM IGF-1/0.5% FBS (2 μl DMSO/ml).
For every two compounds, aliquot 130 μl 10 nM IGF-1/0.5% FBS to wells in columns 2-11 of a 96-well round bottom plate.
Add 260 μl of each compound to four wells in column 12.
Do 2-fold dilutions (130 μl) from columns 12 to 3 on each plate (column 2 will be for the untreated control), mixing thoroughly.
Remove medium from 3T3/IGF-1 R cells, one plate at a time. […]

[1] = read-out: GROWTH DATA: 3T3/IGF1R-0.5% FBS
[2] = read-out: GROWTH DATA: 3T3/IGF1R-10% FBS

Row | SMILES | IC50 [1] [µM] | IC50 [2] [µM]
1 | CC(C)S(=O)(=O)c1csc(NC(=O)Nc2cc(C(F)(F)F)cc(C(F)(F)F)c2)c1Cl [Example Z2, N-[3-Chloro-4-(isopropylsulfonyl)thien-2-yl]-N'-(3,5-di-trifluoromethylphenyl)urea] | 0.7 | 20
2 | O=C(Nc1ccc(SC(F)(F)F)cc1)Nc1ccc(Oc2ccc(Cl)cc2Cl)nc1 [Example Z3] | 0.6 | 18
